Experimental data taken from ChEMBL document CHEMBL1201862, “PubChem BioAssay data set” (2004).
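Protocol summary: plate cells (96-well), add compound at 5 concentrations, incubate 48 h, interpolate endpoints linearly. At the GI50, growth is halved.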 Calls of active or inactive are those of the source. No stated cut-off is given here; in the data, active = GI50 up to about 1.1 µM and inactive = higher.

Tests used:
Test in all cases: NCI tumour cell line growth inhibition, 48 h
[1] = tested on: SK-MEL-28
[2] = tested on: KM12
[3] = tested on: HOP-92
[4] = tested on: A549
[5] = tested on: NCI-H23
[6] = tested on: LOX IMVI
[7] = tested on: T47D
[8] = tested on: SF-268
[9] = tested on: OVCAR-3
[10] = tested on: PC-3
[11] = tested on: BT-549
[12] = tested on: OVCAR-8
[13] = tested on: MDA-N
[14] = tested on: UO-31
[15] = tested on: DMS-114
[16] = tested on: M19-MEL
[17] = tested on: KM-20L2
[18] = tested on: DLD-1
[19] = tested on: DMS-273
[20] = tested on: XF498

Measured: GI50

CCN1c2ccccc2NC(=S)c2c(-c3ccccc3)n[nH]c21
inactive: [1] 45.6 µM | [2] 31.7 µM | [3] 43.8 µM | [4] 24.8 µM | [5] 26.5 µM | [6] 30.5 µM | [7] 17.9 µM | [8] 27.4 µM | [9] 53.3 µM | [10] 25.6 µM | [11] 45.5 µM | [12] 39.4 µM | [13] 16.4 µM

CCOP(=O)(COCCn1nc(Br)c(=O)[nH]c1=O)OCC
inactive: [1] > 100 µM | [2] > 100 µM | [3] > 100 µM | [4] > 100 µM | [5] > 100 µM | [6] > 100 µM | [7] > 100 µM | [8] > 100 µM | [9] > 100 µM | [10] > 100 µM | [12] > 100 µM | [13] > 100 µM | [14] > 100 µM

O=S(=O)(c1ccccc1)C1CC(c2nc3ccccc3[nH]2)=NO1 (stereo not given)
inactive: [1] > 100 µM | [3] 80.4 µM | [4] > 100 µM | [5] > 100 µM | [6] > 100 µM | [7] > 100 µM | [8] > 100 µM | [9] 89.9 µM | [10] > 100 µM | [11] > 100 µM | [12] > 100 µM | [13] > 100 µM | [14] > 100 µM

O=C(O)c1cn2c3c(cc(N4CCN(CCO)CC4)cc3c1=O)SCC2
inactive: [15] 51.3 µM | [1] > 100 µM | [2] > 76.9 µM | [16] > 80.7 µM | [17] > 100 µM | [3] 59.6 µM | [4] > 100 µM | [18] > 100 µM | [19] > 100 µM | [5] 57.5 µM | [6] 71.1 µM | [8] 47.3 µM | [20] 23.2 µM | [9] 58.6 µM | [12] 62.8 µM | [14] > 100 µM

C=C1C(=O)OC2/C=C(\C(=O)O)CC/C=C(\C)CC(OC(=O)/C=C(\C)CC)C12 (stereo not given)
inactive: [15] 15.4 µM | [1] 18.8 µM | [2] 14.4 µM | [16] 15.6 µM | [17] 19.6 µM | [3] 20.9 µM | [4] 16 µM | [18] 16.7 µM | [19] 19 µM | [5] 16.4 µM | [6] 15.3 µM | [8] 14.9 µM | [20] 18.3 µM | [9] 16.3 µM | [12] 17.2 µM | [14] 19.9 µM

OC1CCSc2ccccc21 (stereo not given)
inactive: [15] > 100 µM | [1] > 100 µM | [2] > 100 µM | [16] > 100 µM | [17] > 100 µM | [4] > 100 µM | [18] > 100 µM | [19] > 100 µM | [5] > 100 µM | [6] > 100 µM | [8] > 100 µM | [20] > 100 µM | [9] > 100 µM | [12] > 100 µM | [14] > 100 µM

COc1cc(C2S/C(=C/c3ccccc3)C(=O)N2c2cccc(NC(C)=O)c2)cc(OC)c1OC (stereo not given)
inactive: [1] 90.2 µM | [2] 27.2 µM | [3] 16.4 µM | [4] 39.2 µM | [5] 38 µM | [6] 21.5 µM | [7] 15.4 µM | [8] 24.1 µM | [10] 14.1 µM | [11] 24.7 µM | [12] 29.9 µM | [13] 26.7 µM | [14] 36.6 µM

OC(c1cccnc1Cl)c1nc2ccccc2c2ccnc(Cl)c12 (stereo not given)
inactive: [1] 23.7 µM | [2] 2.94 µM | [3] 18.7 µM | [4] 7.76 µM | [5] 20.5 µM | [6] 7.01 µM | [7] 21.4 µM | [8] 6.21 µM | [9] 6.08 µM | [10] 2.11 µM | [11] 5.79 µM | [12] 9.12 µM | [14] 8.87 µM
active: [13] 0.69 µM

Cc1ccc(C2=C(C#N)C(N)OC3=C2COc2ccccc23)cc1 (stereo not given)
inactive: [1] 31.6 µM | [2] > 100 µM | [3] 31.8 µM | [4] 31.4 µM | [5] 43.5 µM | [6] 88.3 µM | [8] 27 µM | [9] 17 µM | [10] 18.9 µM | [11] > 100 µM | [13] 44.2 µM | [14] 14.3 µM

NNC(N)Nc1ccccc1 (stereo not given)
inactive: [1] > 100 µM | [2] > 100 µM | [3] > 100 µM | [4] > 100 µM | [5] > 100 µM | [7] > 100 µM | [8] > 100 µM | [9] > 100 µM | [10] > 100 µM | [11] > 100 µM | [12] > 100 µM | [13] > 100 µM | [14] > 100 µM

COc1cc(O)c2c(c1)C(=O)c1cc3c(c(O)c1C2=O)C(OC1OC(C)C(O)C(O)C1OC)C(OC)C(C)(O)C3=O (stereo not given)
active: [16] 0.532 µM | [17] 1.1 µM | [3] 0.436 µM | [19] 0.644 µM | [9] 0.439 µM
inactive: [15] 1.61 µM | [4] 3.71 µM | [18] 2.22 µM | [5] 2.06 µM | [6] 2 µM | [8] 2.12 µM | [20] 3.95 µM | [14] 2.09 µM

CN1C[C@H]2[C@@H](C1=O)[C@H](c1ccc([N+](=O)[O-])cc1)ON2C
inactive: [1] > 100 µM | [3] > 100 µM | [4] > 100 µM | [5] > 100 µM | [6] > 100 µM | [7] > 100 µM | [9] > 100 µM | [10] > 100 µM | [12] > 100 µM | [13] > 100 µM | [14] > 100 µM

CC(=O)OC[C@H]1[C@@H]2C(CC[C@]13CO3)OC(=O)CC(C)[C@]2(C)CCc1ccoc1 (stereo not given in full)
inactive: [1] > 100 µM | [2] > 100 µM | [3] > 100 µM | [4] > 100 µM | [5] > 100 µM | [6] > 100 µM | [7] > 100 µM | [8] > 100 µM | [9] > 100 µM | [10] > 100 µM | [11] > 100 µM | [12] > 100 µM | [13] > 100 µM | [14] > 100 µM

Cc1ccc(C)c(NC(=O)C(=O)C(C(=O)c2ccc3ccccc3c2)C2OC(=O)c3ccccc32)c1 (stereo not given)
inactive: [15] 7.21 µM | [1] 12.4 µM | [2] 14.2 µM | [16] 12.7 µM | [17] 21.3 µM | [3] 26.1 µM | [4] 18.2 µM | [18] 23 µM | [19] 3.87 µM | [5] 15.6 µM | [6] 13.6 µM | [8] 3.57 µM | [20] 14.5 µM | [12] 7.82 µM | [14] 16.5 µM

O=Cc1c(Cn2ccnc2)c2cc([N+](=O)[O-])ccc2n1Cc1ccccc1
inactive: [15] > 100 µM | [1] > 100 µM | [2] 73.3 µM | [16] > 69.2 µM | [17] 89.9 µM | [3] > 100 µM | [4] 51.9 µM | [18] > 100 µM | [19] > 100 µM | [5] > 100 µM | [6] > 100 µM | [8] > 92.7 µM | [20] > 100 µM | [9] > 100 µM | [12] > 81.3 µM | [14] > 60.1 µM

Cc1cccc(C(O)c2ccccn2)c1O (stereo not given)
inactive: [1] > 100 µM | [2] > 100 µM | [4] > 100 µM | [5] > 100 µM | [6] > 100 µM | [7] 15.7 µM | [8] > 100 µM | [9] > 100 µM | [10] > 100 µM | [11] > 100 µM | [12] > 100 µM | [13] > 100 µM | [14] > 100 µM

O=C(Nc1ccc(Cl)cc1)C(=O)C(C(=O)c1ccccc1-c1ccccc1)C1OC(=O)c2ccccc21 (stereo not given)
inactive: [15] 16.7 µM | [1] 18.4 µM | [2] 17.3 µM | [16] 19.4 µM | [17] 23.7 µM | [3] 27 µM | [4] 23.6 µM | [18] 29 µM | [19] 29 µM | [5] 23.1 µM | [6] 14.6 µM | [8] 21.3 µM | [20] 17.9 µM | [12] 15.5 µM | [14] 19.4 µM
